Experimental data taken from patent US20040152784A1, “Pharmaceutical composition and method for treatment of a urea cycle deficiency or sickle-cell anaemia” (Special Products Limited, priority 2002, published 2004).
Converted amounts (≈) assume the structure as drawn. “Also recorded” adds a separate entry of the source. Where two headings read alike, the source gives them in different places. Residues, ends and D or L forms follow the SMILES beside them.

Key:
[1] = Solubility in water; assay type: physicochemical; conditions: in water at 10° C.; read-out: maximum solubility of sodium 4-phenylbutyrate
[2] = test system: bacterial and fungal growth; experiment: Prevention of bacterial and fungal growth in the concentrated flavored solution without preservative; assay type: cell-based; conditions: 250 mg/ml, no preservative
From the text: This may not apply at much lower concentrations. Therefore, the concentrated solution should be diluted by the patient's carer or guardian immediately before it is consumed by the patient. Thus the patient's carer or guardian should not prepare a jug of ready-to-use liquid to last a week or so.

[3] = Bulk density and powder properties; assay type: physicochemical
Protocol: A pharmaceutical composition made by either of such methods typically has a bulk density of about 52.6 g/100 ml. […] A 25 g quantity of the granulated pharmaceutical composition will thus approximately half fill a 100 ml bottle.

[4] = cited from earlier work
[5] = cited from earlier work; for Stability / hydrolysis in water: in words

O=C([O-])CCCc1ccccc1.[Na+] [Sodium 4-phenylbutyrate]
solubility [1]: 250 mg/mL
prevention of bacterial and fungal growth [2]: prevents such growth
bulk density [3]: about 26.4 g/100 ml
hygroscopicity [3]: somewhat hygroscopic

O=S(=O)([O-])NC1CCCCC1.[Na+] [Sodium cyclamate]
Solubility in Water ([4]; in words): Soluble

OC[C@@H](O)[C@@H](O[C@H]1O[C@H](CO)[C@@H](O)[C@H](O)[C@H]1O)[C@H](O)[C@@H](O)CO [Maltitol]
Solubility in Water ([4]; in words): Very soluble

COC(=O)[C@H](Cc1ccccc1)NC(=O)[C@@H](N)CC(=O)O [Aspartame] (H-Asp-Phe-OMe)
hydrolyses significantly to phenylalanine (non-sweet) within ([5]; in water): ≤ 6 months
Stability / hydrolysis in water [5]: hydrolyses to phenylalanine within a few weeks; also recorded: Hydrolyses in water
solubility [4]: 10 mg/mL (≈ 34 mM)

CC1=CC(=O)NS(=O)(=O)O1 [Potassium acesulfame]
Stability / hydrolysis in water [5]: Stable in water
Dissolution ([4]; in words): Fast dissolution
Solubility in Water ([4]; in words): Very soluble

O=C1NS(=O)(=O)c2ccccc21.[Na] [Sodium Saccharine]
Solubility in Water ([4]; in words): Very soluble
